The record followed here is patent US20230068414A1, “Herbicide combinations comprising glufosinate and trifludimoxazin” (BASF SE, priority 2020, published 2023).

Experiment [1] deals with Abutilon theophrasti (ABUTH). The experiment can be described thus: Greenhouse postemergence weed control, percent injury vs untreated control. The experiment is classed as in vivo. The text has this:
(§1) For post-emergence treatments, glufosinate and trifludimoxazin, which had been suspended in water, were applied using spray nozzles providing fine to coarse droplets.
(§2) The herbicide compounds applied in the examples were used as experimental or commercially available solo or premix formulations which have been diluted with tap water to a suitable concentration. Glufosinate was used as a commercial SL formulation containing 280 g ai/l of glufosinate (Liberty 280 SL, BASF). While the PPO herbicide Vulcarus containing 500 g ai/l trifludimoxazin was used (Vulcarus 500 SC, BASF) formulation.
(§3) The evaluation for plant injury or damage caused by the chemical compositions was carried out using a scale from 0-100% when compared with the untreated control plants. Here, 0 means no damage and 100 means complete destruction of the plants.
(§4) 22., E=X+Y−(X*Y/100), where
(§5) X=effect in percent using herbicide A at an application rate of a;
(§6) Y=effect in percent using herbicide B at an application rate of b;
(§7) E=expected effect (in %) of A+B at application rates a+b.
(§8) The value E corresponds to the effect (plant damage or injury) which is to be expected if the activity of the individual compounds is just additive. If the observed effect is higher than the value E calculated according to Colby, a synergistic effect is present.
(§9) Weed Control of Glufosinate Plus Trifludimoxazin Mixtures (Greenhouse) Seedlings of velvetleaf (Abutilon theophrasti; ABUTH) and Palmer amaranth (Amaranthus palmeri; AMAPA were treated with postemergence applications of either glufosinate at 246 g ai/ha, trifludimoxazin at 6.25 g ai/ha, or the combination of glufosinate (246 g ai/ha) and trifludimoxazin (6.25 g ai/ha), respectively, when they were 5-10 cm in height. All glufosinate treatments contained 1% (w/v) ammonium sulfate and solo trifludimoxazin treatments contained 1% (w/v) ammonium sulfate plus 1% (v/v) MSO surfactant. Plants were placed in a completely randomized design with four replications per treatment. Percent injury data was collected 21 days after treatment (DAT).

In experiment [2] the test system is Amaranthus palmeri (AMAPA). Described as above. Format: in vivo.
Text: as §1, §2, §3, §4, §5, §6, §7, §8, §9

With `CP(=O)(O)CCC(N)C(=O)O` (racemic) [Glufosinate, (2RS)-2-amino-4-[hydroxy(methyl)phosphinoyl]butyric acid], the inhibition at 246 g/ha in experiment [1] (Abutilon theophrasti, post-emergence, 504 h, read-out: Solo Glufosinate (246 g ai/ha) % activity) came to 23%; in experiment [2] (Amaranthus palmeri, post-emergence, 504 h, read-out: Solo Glufosinate (246 g ai/ha) % activity) it was 48%.
Turning to `C#CCN1C(=O)C(F)(F)Oc2cc(F)c(-n3c(=O)n(C)c(=S)n(C)c3=O)cc21` [Trifludimoxazin], the “Solo Trifludimoxazin (6.25 g ai/ha) % activity” value was determined as 70% in experiment [1] (ABUTH seedlings 5-10 cm, postemergence, 6.25 g ai/ha, 1% ammonium sulfate plus 1% MSO, 21 DAT) and 63% in experiment [2] (AMAPA seedlings 5-10 cm, postemergence, 6.25 g ai/ha, 1% ammonium sulfate plus 1% MSO, 21 DAT).
